Patent US6825191B2, “Benzodiazepine derivatives” (Ajinomoto Co., Inc., priority 2000, dated 2004)

How the values were obtained:
[1] = target: T1, activated human blood coagulation factor X (Homo sapiens, UniProt P00742); assay: Determination of activity of inhibiting the activated blood-coagulation factor X (chromogenic substrate, initial rate); type: biochemical; settings: negative logarithm of concentration inhibiting 50% of initial rate, tris hydrochloride buffer pH 8.4, room temperature; for IC50: read-out: Activity of inhibiting activated blood coagulation factor X (pIC50) (converted)
T1 construct: purchased Enzyme Research Co
Experimental: Determination of Activity of inhibiting the Activated Blood-coagulation Factor X
130 μl of 100 mM tris hydrochloride buffer adjusted to pH 8.4 was added to 10 μl of an aqueous solution of a compound to be tested. Then 10 μl of a 0.5 unit/ml solution of activated human blood coagulation factor X (a product of Enzyme Research Co.) in tris hydrochloride buffer of pH 8.4 was added to the resultant mixture. After the incubation at room temperature for 10 minutes, 50 μl of a solution of N-benzoyl-L-isoleucyl-L-glutamyl-glycyl-L-arginyl-P-nitroanilide hydrochloride (a product of Peptide Institute Inc.) adjusted to 0.8 mM with tris hydrochloride (pH 8.4) was added thereto. The a absorbance was determined and then the initial reaction rate was determined. A control was prepared in the same manner as that described above except that the solution of the compound to be tested was replaced with 10 μl of tris hydrochloride buffer adjusted to pH 8.4. The absorbance was determined with MICROPLATE READER Model 3550-UV (a product of BIO RAD) at a wave length of 405 nm at intervals of 15 seconds for 16 minutes.

blood plasma = assay: Determination of blood anticoagulating activity by prothrombin time (PT) determination method; type: biochemical, human; settings: negative logarithm of concentration which elongated PT of the control to twice as long; blood plasma of healthy people
Experimental: Determination of Blood Anticoagulating Activity
The blood anticoagulating activity was determined by a prothrombin time (PT) determination method. The PT was determined as follows: The blood was taken from healthy people. 3.8% aqueous trisodium citrate solution was added to the blood in a volume ratio of 1:10. The blood plasma was separated by the centrifugation. 5 μl of DMSO solution containing a test compound was added to 45 μl of the blood plasma. After the incubation apt room temperature for 2 minutes, a test tube containing the blood plasma solution was placed in Sysmex CA-3000 fully automatic blood coagulation determination device (a product of Toa Medical Electronics Co., Ltd), and incubated at 37° C. for 3 minutes. 100 μl of Sysmex PT II (rabbit brain tissue thromboplastin, 13.2 mM calcium chloride; a product of Toa Medical Electronics Co., Ltd) was fed into the test tube. PT was automatically determined with the device. A sample containing 5 μl of DMSO in place of the solution of the test compound was used as the control. The negative logarithm (pPT2) of the concentration of the test compound which elongated PT of the control to the twice as long was determined, and employed as the index of the blood anticoagulating activity.

human thrombin = target: T2, human thrombin (Homo sapiens, UniProt P00734); assay: Determination of thrombin-inhibiting activity (chromogenic substrate S-2238, initial rate); type: biochemical; settings: negative logarithm of concentration inhibiting 50% of initial rate, tris hydrochloride buffer pH 8.4, room temperature; for IC50: read-out: Thrombin-inhibiting activity (pIC50) (converted)
T2 construct: solution of human thrombin (a product of SIGMA Co.); purchased SIGMA Co
Experimental: Determination of Thrombin-inhibiting Activity
130 μL of 100 mM tris hydrochloride buffer adjusted to pH 8.4 was added to 10 μl of an aqueous solution of a test compound. Then 10 μl of a solution of human thrombin (a product of SIGMA Co.) adjusted to 2 units/ml with tris hydrochloride buffer of pH 8.4 was added to the resultant mixture. After the incubation at room temperature for 10 minutes, 50 μl of a solution of D-phenylalanine-L-pipecolyl-L-arginine-P-nitroanilide dihydrochloride (S-2238; a product of Daiichi Kagaku Yakuhin Co.) adjusted to 0.4 mM with tris hydrochloride buffer of pH 8.4 was added thereto. The absorbance was determined and then the initial reaction rate was determined. A control was prepared in the same manner as that described above except that the solution of the compound to be tested was replaced with 10 μl of tris hydrochloride buffer adjusted to pH 8.4. The absorbance was determined with MICROPLATE READER Model 3550-UV (a product of BIO RAD) at a wave length of 405 nm at intervals of 15 seconds for 16 minutes. The negative logarithm (pIC50) of a concentration of the test compound which inhibits 50% of the activity (initial rate) of the thrombin in the absence of the test compound was determined, and employed as the index of the activity of inhibiting thrombin.

T1 sequence (P00742 235-488 limits assumed): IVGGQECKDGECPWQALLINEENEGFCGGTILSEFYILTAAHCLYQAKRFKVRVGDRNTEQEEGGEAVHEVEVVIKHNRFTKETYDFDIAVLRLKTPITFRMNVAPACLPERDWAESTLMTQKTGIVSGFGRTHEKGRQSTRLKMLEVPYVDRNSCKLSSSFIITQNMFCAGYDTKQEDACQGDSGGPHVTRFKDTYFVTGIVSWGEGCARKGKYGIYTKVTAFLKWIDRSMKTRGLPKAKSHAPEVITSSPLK
T1 sequence (P00742 41-179 partner limits assumed): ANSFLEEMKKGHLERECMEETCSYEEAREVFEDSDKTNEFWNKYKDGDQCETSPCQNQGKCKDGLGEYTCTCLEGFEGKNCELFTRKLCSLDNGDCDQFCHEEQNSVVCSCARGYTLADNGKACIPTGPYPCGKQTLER

Compound	IC50 [1]	Human blood anticoagulating activity (pPT2) (blood plasma)	IC50 (human thrombin)	Activity of inhibiting activated blood coagulation factor X (pIC50) [1]	Thrombin-inhibiting activity (pIC50) (human thrombin)
O=C(O)C(F)(F)F.O=C(c1ccc(Br)cc1)N1CC(=O)N(CC2CCN(c3ccncc3)CC2)c2ccccc2C1 [Compd. of Ex. 9, 4-(4-bromobenzoyl)-1-[1-(4-pyridyl)-4-piperidylmethyl]-1,3,4,5-tetrahydrobenzo[e][1,4]diazepin-2-on trifluoroacetate]	501 nM	4.9	> 100 µM	–	–
CN1CCN=C1c1ccc(CN2C(=O)CN(C(=O)c3ccc(Cl)cc3)Cc3ccc(CCC(=O)N4CCOCC4)cc32)cc1.O=C(O)C(F)(F)F [Compd. of Ex. 144, 4-(4-chlorobenzoyl)-1-[4-(1-methyl-4,5-dihydro-1H-imidazol-2-yl)benzyl]-8-[3-(4-morpholinyl)-3-oxopropyl]-1,3,4,5-tetrahydrobenzo[e][1,4]diazepin-2-on mono(trifluoroacetate)]	200 nM	5.6	79.4 µM	–	–
O=C(CCc1ccc2c(c1)N(Cc1ccc(C(=O)N3CC=CC3)cc1)C(=O)CN(C(=O)c1ccc(Cl)cc1)C2)N1CCOCC1 [Compd. of Ex. 68, 4-(4-chlorobenzoyl)-8-(3-morpholine-4-yl-3-oxopropyl)-1-[4-(2,5-dihydro-1H-pyrrol-1-ylcarbonyl)benzyl]-1,3,4,5-tetrahydrobenzo[e][1,4]diazepin-2-on]	39.8 nM	5.2	63.1 µM	–	–
O=C(O)C(F)(F)F.O=C(c1ccc(Br)s1)N1CC(=O)N(CC2CCN(c3ccncc3)CC2)c2ccccc2C1 [Compd. of Ex. 25, 4-(5-bromothiophene-2-carbonyl)-1-[1-(4-pyridyl)-4-piperidylmethyl]-1,3,4,5-tetrahydrobenzo[e][1,4]diazepin-2-on trifluoroacetate]	398 nM	4.9	> 100 µM	–	–
4-(4-chlorobenzoyl)-1-[4-(1-acetoimidoyl)-4-piperidyloxy]benzyl]-1,3,4,5-tetrahydrobenzo[e][1,4]diazepin-2-on trifluoroacetate [Compd. of Ex. 27]	–	4.8	–	6.4	<4.0
CCOC(=O)c1ccc2c(c1)N(Cc1ccc(C3=NCCN3C)cc1)C(=O)CN(C(=O)c1ccc(Cl)cc1)C2.O=C(O)C(F)(F)F [Compd. of Ex. 204, ethyl 4-(4-chlorobenzoyl)-2-oxo-1-[4-(1-methyl-4,5-dihydro-1H-imidazol-2-yl)benzyl]-2,3,4,5-tetrahydro-1H-benzoyl[e][1,4]diazepine-8-carboxylate trifluoroacetate]	–	5.2	–	6.5	<4.0
CN1CCN=C1c1ccc(CN2C(=O)CN(C(=O)c3ccc(Cl)cc3)Cc3c(Cl)cccc32)cc1.O=C(O)C(F)(F)F [Compd. of Ex. 122, 6-chloro-4-(4-chlorobenzoyl)-1-[4-(1-methyl-4,5-dihydro-1H-imidazol-2-yl)benzyl]-1,3,4,5-tetrahydrobenzo[e][1,4]-diazepin-2-on trifluoroacetate]	50.1 nM	5.6	> 100 µM	–	–
CN1CC[N+](C)=C1N1CCC(CCN2C(=O)CN(C(=O)c3ccc(Cl)cc3)Cc3ccccc32)CC1.O=C([O-])C(F)(F)F [Compd. of Ex. 178, 4-(4-chlorobenzoyl)-1-[2-(1-(1,3-dimethyl-4,5-dihydro-1H-imidazo-3-ium-2-yl)-4-piperidinyl)ethyl]-1,3,4,5-tetra-hydrobenzo[e][1,4]diazepin-2-on trifluoroacetate]	–	5.8	–	7.1	<4.0
O=C(c1ccc(CN2C(=O)CN(C(=O)c3ccc(Cl)cc3)Cc3ccc(CCP(=O)(O)O)cc32)cc1)N1CCCC1 [Compd. of Ex. 71-1, [2-(4-(4-chlorobenzoyl)-2-oxo-1-(4-(1-pyrrolidinecarbonyl)benzyl)-2,3,4,5-tetrahydro-1H-benzo[e][1,4]-diazepin-8-yl)ethyl]phosphonic acid]	25.1 nM	5.0	31.6 µM	–	–
O=C(O)C(F)(F)F.O=C(c1ccc(Cl)cc1)N1CC(=O)N(CC2CCN(c3ccncc3)CC2)c2ccccc2C1 [Compd. of Ex. 2, 4-(4-chlorobenzoyl)-1-[1-(4-pyridyl)-4-piperidylmethyl]-1,3,4,5-tetrahydrobenzo[e][1,4]diazepin-2-on trifluoroacetate]	398 nM	4.9	> 100 µM	–	–
O=C(O)C(F)(F)F.O=C(c1ccc(Cl)cc1)N1CC(=O)N(CC2CCN(C3CCCCC3)CC2)c2ccccc2C1 [Compd. of Ex. 143, 4-(4-chlorobenzoyl)-1-[(1-cyclohexyl-4-piperidinyl)methyl]-1,3,4,5-tetrahydrobenzo[e][1,4]diazepin-2-on mono(trifluoroacetate)]	316 nM	5.4	63.1 µM	–	–
CC(C)N1CCC(CN2C(=O)CN(C(=O)c3ccc(Cl)cc3)Cc3ccccc32)CC1.O=C(O)C(F)(F)F [Compd. of Ex. 142, 4-(4-chlorobenzoyl)-1-[(1-isopropyl-4-piperidinyl)methyl]-1,3,4,5-tetrahydrobenzo[e][1,4]diazepin-2-on trifluoroacetate]	794 nM	5.5	39.8 µM	–	–
